In brackets after ≈: the same amount, converted by molar mass.

The target in data set [1] is T1, hTSLP/hTSLPR interaction (Homo sapiens, UniProt Q969D9).
T1 construct: human TSLP28–159 with thrombin cleavage site at C-terminus; thrombin cleavage site (C); 8xHis (from vector pAB-bee-8xHis) (C, cleaved yes); made in house; host or cells: Trichoplusia ni High-Five cells, baculovirus (secreted)
The data set can be described thus: ELISA of hTSLP/hTSLPR interaction (FLAG-hTSLP, hTSLPR-His).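 For all read-outs here: His-tagged hTSLPR captured on Ni-NTA plates, compounds plus FLAG-hTSLP incubated 18 h at 4 °C, bound ligand detected with HRP anti-FLAG, OD 450 nm relative to control.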 The note with it: for inhibition at 300 µM / inhibition at 1000 µM: read-out: % inhibition (hTSLP-inhibitory activity by ELISA). Format: binding.

A short description of data set [2]: Kinetic aqueous solubility. Format: physicochemical. The note with it: 0.1 M potassium phosphate buffer, kinetic from dmso stock, PBS / phosphate buffer pH 7.4. The method, then: In brief, 10 mM stock solution of tested compounds was prepared in DMSO. 25 μL of the stock solution was added to a 1-mL uniprep vial containing 475 μL of 0.1 M potassium phosphate buffer (pH 7.4), and was shaken at 800 rpm for 90 min at room temperature. Following shaking, the mixture was filtered by slowly pressing the upper tube of the 1 mL Mini-Uniprep^TM filter (PTFE membrane, 0.45 μm). 250 μL of the filtrate solution was then transferred to a HPLC vial containing equal volume of acetonitrile.

Data set [3] concerns pSTAT5 in TSLP-stimulated HMC-1 cells. The experiment in a line: Western blot analysis of STAT5 phosphorylation. Particulars: TSLP 20 ng/mL for 2 h. Format: cell-based, human. How it is done: (§1) HMC-1 cells were obtained from the Department of Food Technology and Inflammatory Disease Research Center (Hoseo University, Asan, Chungnam, Korea). Cells were cultured in Iscove’s modified Dulbecco’s medium (IMDM; Hyclone Laboratories Inc, USA) supplemented with 10% FBS and 1% Penicillin-streptomycin (PS; Gibco Industries Inc, USA) and incubated at 37 °C under humidified atmosphere of 95% air and 5% CO2. Recombinant hTSLP was purchased from R&D Systems (Minneapolis, USA).
[…] Activated cells were lysed and separated by 10% sodium dodecyl sulfate-polyacrylamide gel electrophoresis (SDS-PAGE). After electrophoresis, proteins were transferred to nitrocellulose membranes. The membranes were blocked, incubated with primary antibodies (1:700 dilution in PBS with 0.05% Tween-20), and developed using peroxidase-conjugated secondary antibodies (1:3000 dilution in PBS with 0.05% Tween-20). Proteins were visualized by enhanced chemiluminescence (Amersham Bioseciences, Piscataway, NJ, USA) according to the manufacturer’s instructions.
In general terms: In western blotting, separated proteins are transferred to a membrane and probed.

The test system of data set [4] is STAT5 phosphorylation in hTSLP-stimulated HMC-1 cells. The experiment in a line: STAT5 assay (STAT5 phosphorylation, flow cytometry). Format: cell-based, human. How it is done:
as §1
Intracellular phospho-STAT5 (pSTAT5) staining method was based on the protocol obtained from the laboratory of Susan Kaech, Department of Immunobiology, Yale University School of Medicine (New Haven, Connecticut, USA). Briefly, HMC-1 cells were seeded in 96-well U-bottom plate at a density of 1 × 10^7 cells/mL and stimulated with 100 ng/mL recombinant hTSLP alone or with 1 for 30 min. After stimulation, cells were fixed with BD Cytofix/Cytoperm (BD Biosciences, USA) solution for 10 min. Fixed cells were then permeabilized with ice-cold methanol for 30 min, and intracellular pSTAT5 was stained with Alexa Fluor 647 mouse anti-STAT5 (pY694; BD Biosciences, USA) (1:10 dilution in FACS buffer) for 30 min. Stained cells were further fixed with BD Cytofix/Cytoperm solution for 10 min and re-suspended in FACS buffer for flow cytometry analysis. Cells were analyzed by a BD LSR Fortessa Flow cytometry (BD Biosciences, USA). FACS data were analyzed using FlowJo software Ver 9. 7. 6 (Tree Star Inc., USA).
(In flow cytometry, cells or beads pass a laser one at a time.)

T1 sequence (Q969D9 28-159): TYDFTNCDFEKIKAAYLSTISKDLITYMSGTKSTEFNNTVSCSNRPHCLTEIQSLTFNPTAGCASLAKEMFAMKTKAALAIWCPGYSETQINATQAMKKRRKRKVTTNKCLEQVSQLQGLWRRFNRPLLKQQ

With `O=C(O)[C@H]1O[C@@H](Oc2cc3oc(-c4ccccc4)cc(=O)c3c(O)c2O)[C@H](O)[C@@H](O)[C@@H]1O` [Compound 1a, baicalin], the inhibition (in general, the change of the read-out against control, counted positive when it falls) at 300 µM in data set [1] (0.3 mM) worked out at 12.1 ± 1.8%. Further, the inhibition at 1000 µM in data set [1] (1 mM) amounted to 19.9 ± 0.2%.

For `COc1c(O)cc(O)c2c(=O)cc(-c3ccccc3)oc12` [Compound 1b, wogonin], the inhibition at 300 µM in data set [1] (0.3 mM) is < 5%. The inhibition at 1000 µM in data set [1] (1 mM) was < 5%.

In the case of `COc1c(O)cc2oc(-c3ccccc3)cc(=O)c2c1O` [Compound 1c, oroxylin A], in data set [1] (0.3 mM), the “% inhibition (hTSLP-inhibitory activity by ELISA)” value is listed as <5%. Besides, the inhibition at 1000 µM in data set [1] (1 mM) was determined as 11.6 ± 6.3%.

Regarding `COc1cccc(O)c1-c1cc(=O)c2c(O)c(OC)c(OC)c(OC)c2o1` [Compound 1d, skullcapflavone II], the inhibition at 300 µM in data set [1] (0.3 mM) is < 5%. Besides, the inhibition at 1000 µM in data set [1] (1 mM) was < 5%.

As for `COc1c(O)ccc(O)c1-c1cc(=O)c2c(O)cc(O)c(OC)c2o1` [Compound 1e, viscidulin III], the inhibition at 300 µM in data set [1] (0.3 mM) was found to be 12.8 ± 0.6%. Also, the inhibition at 1000 µM in data set [1] (1 mM) is 26.3%.

For the molecule `O=C1CC(c2c(O)cccc2O)Oc2cc(O)cc(O)c21` (centres unmarked) [Compound 1f, 2′,5,6′,7-tetrahydroflavanone], the inhibition at 300 µM in data set [1] (0.3 mM) was determined as 14 ± 3.8%. For the same molecule, the inhibition at 1000 µM in data set [1] (1 mM) is 8.4 ± 5.8%.

As for `COc1cc2oc(-c3ccccc3)cc(=O)c2c(OC)c1OC` [Compound 2], the inhibition at 300 µM in data set [1] (0.3 mM) is < 5%. Further, the inhibition at 1000 µM in data set [1] (1 mM) was 12 ± 2.8%.

For the molecule `O=c1cc(-c2ccccc2)oc2cc(O)ccc12` [Compound 3a], in data set [1] (0.3 mM), the inhibition at 300 µM came to 16.4 ± 2.7%. Moreover, the inhibition at 1000 µM in data set [1] (1 mM) worked out at 23.3 ± 6.8%.

With `O=c1cc(-c2ccccc2)oc2ccc(O)cc12` [Compound 3b], the inhibition at 300 µM in data set [1] (0.3 mM) came out at 22.2 ± 2.5%. Besides, the inhibition at 1000 µM in data set [1] (1 mM) turned out to be 38.7 ± 5.3%.

With `O=c1cc(-c2ccccc2)oc2cccc(O)c12` [Compound 3c], in data set [1] (0.3 mM), the inhibition at 300 µM came out at 24.1 ± 5.4%. Besides, in data set [1] (1 mM), the inhibition at 1000 µM came to 16.8 ± 2%.

As to `O=c1cc(-c2ccccc2)oc2cc(O)cc(O)c12` [Compound 6a, 5,7-Dihydroxy-2-phenyl-4H-chromen-4-one], the solubility (kinetic) (as a rule, the concentration staying in solution when a stock, usually in DMSO, is diluted into the medium) at 90 min in data set [2] is 30 µM (≈ 7.63 µg/mL).

Regarding `O=c1cc(-c2ccc(O)cc2)oc2cc(O)cc(O)c12` [Compound 6b, 5,7-Dihydroxy-2-(4-hydroxyphenyl)-4H-chromen-4-one], the solubility (kinetic) at 90 min in data set [2] came to 486 µM (≈ 131 µg/mL).

Regarding `O=C1CC(c2ccccc2)Oc2cc(O)cc(O)c21` (centres unmarked) [Compound 7a, 5,7-Dihydroxy-2-phenylchroman-4-one], the “hTSLP-inhibitory activity by ELISA, comparison in words” value in data set [1] is “weaker”. The solubility (kinetic) at 90 min in data set [2] is 111 µM (≈ 28.4 µg/mL).

Regarding `O=C1CC(c2ccc(O)cc2)Oc2cc(O)cc(O)c21` (centres unmarked) [Compound 7b, 5,7-Dihydroxy-2-(4-hydroxyphenyl)chroman-4-one], the “hTSLP-inhibitory activity by ELISA, comparison in words” value in data set [1] was “weaker”. Besides, in data set [2], the kinetic solubility at 90 min came to 505 µM (≈ 137 µg/mL).

Take `O=c1cc(-c2cccc(-c3ccc(O)cc3)c2)oc2cc(O)cc(O)c12` [Compound 10a, 5,7-Dihydroxy-2-(4′-hydroxy-[1,1′-biphenyl]-3-yl)-4H-chromen-4-one]: the inhibition at 300 µM in data set [1] (0.3 mM) was > 50%.

For the molecule `O=c1cc(-c2cccc(-c3ccccc3)c2)oc2cc(O)c(O)cc12` [Compound 10e, 2-([1,1′-Biphenyl]-3-yl)-6,7-dihydroxy-4H-chromen-4-one], in data set [1], the midpoint of inhibition, the IC50, lay at 177 µM. Moreover, the inhibition at 300 µM in data set [1] (0.3 mM) is > 50%. Further, the “inhibition of STAT5 phosphorylation, Western blot (in words)” value (“inhibition of STAT5 phosphorylation” for short) in data set [3] (HMC-1 cells pretreated) is “stronger than compound 1”.

As to `O=c1cc(-c2cccc(-c3ccc(O)cc3)c2)oc2cc(O)c(O)cc12` [Compound 10g, 6,7-Dihydroxy-2-(4′-hydroxy-[1,1′-biphenyl]-3-yl)-4H-chromen-4-one], the IC50 – broadly, the concentration that inhibits the measured activity by half – in data set [1] stood at 210 µM. Moreover, the inhibition at 300 µM in data set [1] (0.3 mM) is > 50%. Besides, the “inhibition of STAT5 phosphorylation” value in data set [3] (HMC-1 cells pretreated) is “stronger than compound 1”.

`O=c1cc(-c2cccc(-c3ccc([N+](=O)[O-])cc3)c2)oc2cc(O)c(O)cc12` [Compound 10h, 6,7-Dihydroxy-2-(4′-nitro-[1,1′-biphenyl]-3-yl)-4H-chromen-4-one]: the inhibition at 300 µM in data set [1] (0.3 mM) is > 50%.

The molecule `O=C1CC(c2cccc(-c3ccc(O)cc3)c2)Oc2cc(O)cc(O)c21` (centres unmarked) [Compound 11a, 5,7-Dihydroxy-2-(4′-hydroxy-[1,1′-biphenyl]-3-yl)chroman-4-one] registered an IC50 in data set [1] of 370 µM. Further, the “inhibition of STAT5 phosphorylation” value in data set [3] (even at 0.01 μM, HMC-1 cells) is on record as “strongly inhibited”. Moreover, the kinetic solubility at 90 min in data set [2] was 66 µM (≈ 23 µg/mL).

Regarding `O=C(O)[C@H]1O[C@@H](Oc2cc3oc(-c4ccccc4)cc(=O)c3c(O)c2O)[C@H](O)[C@@H](O)[C@@H]1O` [KUP-040, baicalin], the STAT5 phosphorylation % came to 69.7% in data set [4] (3 µM) and 68.8% in data set [4] (10 μM).

As for `COc1c(O)cc2oc(-c3ccccc3)cc(=O)c2c1O` [KUP-119, oroxylin A], the “% inhibition (hTSLP-inhibitory activity by ELISA)” value in data set [1] (0.3 mM) came to 1.7 ± 9.0%; in data set [1] (1 mM), 11.6 ± 6.3%.
